Paper PMC6418785, “Presenting Precision Glycomacromolecules on Gold Nanoparticles for Increased Lectin Binding” (Polymers, 2017)

Key:
Concanavalin A (Con A) [1] = biological target: T1, Concanavalin A (Con A) (Canavalia ensiformis, UniProt P02866); test: SPR inhibition competition assay, Con A binding to mannosylated sensor chip; settings: for IC50: 100 nM Con A, LBB; for RIP per Carbohydrate Ligand: corrected for carbohydrate number per nanoparticle; for RIP per Glycomacromolecular Ligand: corrected for glycomacromolecule number per nanoparticle; for RIP: relative inhibitory potency based on IC50 of αMeMan on same chip (IP ≡ 1)
T1 construct: purchased LKT Laboratories (Biomol, Hamburg, Germany)
Procedure: As sensor chip a SA (streptavidin) chip from GE Healthcare Life Sciences was used. The positive (α-D-Mannose-PAA-biotin, flow cell 2) and negative (α-D-Galactose-PAA-biotin, flow cell 1) control for Con A binding were immobilized on the sensor chip surface using the standard biotin streptavidin capture method as adapted from previously established protocols. Therefore, a 4.2 µg/mL solution of both polymers was prepared in HBS-P+ buffer (pH 7.4, GE Healthcare, Uppsala, Sweden). The same buffer was used as running buffer in a flow rate of 10 µL/min. For immobilization, the immobilization wizard was used with a specified contact time of 420 s. Sodium chloride, sodium hydroxide and isopropanol solutions were prepared as specified by the manufacturer. […] After approximately 500 measurement cycles, a new SA (streptavidin) chip was used for further measurements. For immobilization, the same procedure was used as described above.
SPR inhibition competition studies were performed using the wizard template kinetics/affinity with contact times of 105 s and dissociation times of 180 s. Before the run, the system was primed with LBB (pH 7.40 ± 0.01, 10 mM Hepes, 50 mM NaCl, 1 mM CaCl2, 1 mM MnCl2) which was used as running buffer and two startup cycles were performed. The experiment was performed in multi cycle mode. For all experiments a 1 mg/mL stock solution of Con A was prepared in LBB and was shaken for 1 h. Then it was filtrated (Acrodisc® 32 mm syringe filter with a 0.1 µm Supor® membrane from Pall Corporation, Newquay, UK) and the concentration was determined spectrophotometrically. The stock solution was diluted to give a 200 nM solution of Con A. Glyco-AuNP solutions were concentrated by centrifugation (Allegra^TM 25R Centrifuge, Beckman Coulter, Brea, CA, USA, 12 h, 4500 rcf) and were resuspended in LBB to give a 20 nM stock solution. The concentration was verified by UV measurement. This glyco-AuNP stock solution was then used to prepare the dilution series in LBB. […] For N-ethylmaleimide capped glycomacromolecule 1a a dilution series with concentrations of 0, 1, 10, 20, 50, 100, 200, 500, 1000 µM and 3a a dilution series with concentrations of 0, 2, 20, 100, 200, 500, 1000, 1500, 2000 nM was prepared. For αMeMan a dilution series with concentrations of 0, 10, 100, 500, 1000, 1500, 2000, 5000 µM was prepared. As negative control, four representative concentrations of 0, 10, 1500 and 5000 µM were prepared for D-(+)-galactose.
For the experiment Con A and sample solutions were mixed in a 1:1 ratio to give half of the prepared concentrations. Each mixture was injected over both flow cells whereas the binding signal on flow cell 1 was subtracted from the response on flow cell 2. As regeneration procedure three consecutive injections of a 0.8 M solution of αMeMan in LBB with a contact time of 30 s was used. The relative response value at the beginning of the dissociation phase (20 s after the end of sample injection) for the 100 nM Con A solution with zero sample concentration was set to 100% binding. The relative response values of the Con A solutions incubated with the respective sample in serial dilutions were referred to Con A and calculated for relative binding in %. IC50 values were calculated as concentration of the sample that result in 50% inhibition of Con A binding to the mannosylated sensor chip surface. RIP (relative inhibitory potency) values are based on the IC50 value for αMeMan (IP (inhibitory potency) ≡ 1). All glyco-AuNPs, glycomacromolecules and αMeMan have been tested in three independent experiments (triplicate determination per experiment for αMeMan and glyco-AuNPs, dublicate determination per experiment for glycomacromolecules 1a and 3a).

Concanavalin A (Con A) [2] = biological target: T1, Concanavalin A (Con A); test: Kinetic study of aggregation behavior with Con A by DLS and UV-Vis spectroscopy; type: binding; settings: αMeMan 60 mM added to wells or DLS cuvettes
Procedure: For the kinetic study of aggregation behavior with Con A performed by DLS and UV-Vis spectroscopy, a similar procedure as described by the group of Gibson was performed [41, 42].
For the kinetic studies using absorbance spectroscopy (Thermo Scientific, Vantaa, Finland), the stock solutions were mixed in wells of a 96-well microtiter-plate (100 µL of each solution per well). The absorbance at 400 and 700 nm was measured every minute for 30 min.
For the kinetic studies using DLS, the stock solutions were filtrated twice (Roth, Rotilabo® syringe filter, Karlsruhe, Germany, PTFE, 5.0 µm) and were pre-tempered to 20 °C. Then 750 µL of each stock solution were filled into the culture tubes and mixed. DLS measurements were performed at 20 °C and at a scattering angle of 90°. Every minute an intensity-time autocorrelation function was recorded with an acquisition time of 30 s during a period of 30 min.

[3] = SA sensor chip used for 1a and 3a (footnote 1)

| Compound | inhibition of Con A binding (Concanavalin A (Con A) [1]; negative control, four representative concentrations) | IC50 (Concanavalin A (Con A) [1]; [3]) [µM] | RIP per Carbohydrate Ligand (Concanavalin A (Con A) [1]) | RIP per Glycomacromolecular Ligand (Concanavalin A (Con A) [1]) | RIP (Concanavalin A (Con A) [1]) | IC50 (Concanavalin A (Con A) [1]; SA sensor chip with αMeMan IC50 (5.17 ± 0.84) × 10^5 nM) [µM] | redispersion of Con A induced glyco-AuNP aggregates (Concanavalin A (Con A) [2]) |
| --- | --- | --- | --- | --- | --- | --- | --- |
| OC[C@H]1OC(O)[C@H](O)[C@@H](O)[C@H]1O (stereo partly drawn) [D-(+)-galactose] | no inhibition | – | – | – | – | – | – |
| Man(2)-5-Gly(1)-EDS(3,4)-Cys(5)-N-ethylmaleimide [glycomacromolecule 1a] | – | 70 | 5 | 5 | 5 | – | – |
| Man(2,4,6,8,10)-11-Gly(1)-EDS(3,5,7,9)-Cys(11)-N-ethylmaleimide [glycomacromolecule 3a] | – | – | 419 | 2096 | 2096 | – | – |
| CO[C@H]1O[C@H](CO)[C@@H](O)[C@H](O)[C@@H]1O [αMeMan, methyl-α-D-mannopyranoside] | – | 325 | 1 | 1 | 1 | 517 | redispersion of the aggregates |
